Experimental data from US10322123B2, “Compound for anti-cancer therapy that acts by targeting GOF mutant P53 and stimulates P73 to restore the P53 pathway signaling” (The Penn State Research Foundation, priority 2014, dated 2019).

What was measured:
[1] = system: p21, Puma and Noxa mRNA; test: qRT-PCR of p53 target gene mRNA; format: cell-based, human
Source text: Total RNA was isolated from cells using RNeasy mini kit (Qiagen, USA) by the recommended protocol. Reverse transcription used SuperScript II first-strand synthesis system (Invitrogen, USA) with random primers. qRT-PCR reactions used SYBR green master mix with the Real-Time PCR Detection systems (Bio-Rad, USA). Primers for qRT-PCR are (forward) 5′-[…]-3′ (SEQ ID NO: 1) and (reverse) 5′-[…]-3′ (SEQ ID NO: 2) for p53, (forward) 5′-TGTCCGTCAGAACCCATG-3′ (SEQ ID NO: 3) and (reverse) 5′-[…]-3′ (SEQ ID NO: 4) for p21, (forward) 5′-[…]-3′ (SEQ ID NO: 5) and (reverse) 5′-[…]-3′ (SEQ ID NO: 6) for Puma, (forward) 5′-[…]-3′ (SEQ ID NO: 7) and (reverse) 5′-[…]-3′ (SEQ ID NO: 8) for Noxa, (forward) 5′-CTGGGCTACACTGAGCACC-3′ (SEQ ID NO: 9) and (reverse) 5′-[…]-3′ (SEQ ID NO: 10) for Gapdh. Target gene expression levels were normalized with Gapdh.

[2] = system: MRC-5 normal fibroblast cells; test: CellTiter-Glo cell viability, combination with CPT-11; format: cell-based, human; details: for Combination index (CI): MRC, 72 hr
Protocol: (§1) Cells at a concentration of 5000 cells/well in 96-well plates were treated with NSC59984 or other drugs. At seventy-two hours after treatment, cells were mixed with an equal volume of CellTiter-Glo reagents (Promega, Madison, Wis.), following the manufacturer's protocol, and bioluminescence imaging was measured using the IVIS imager.
(§2) All results were obtained from triplicate experiments, unless other indicated. Statistical analyses were performed using PRISM4 Software (GraphPad Software, Inc., San Diego, Calif., USA), ANOVA and Student's t-test. Statistical significances were determined by p<0.05. Combination indices were calculated using the Chou-Talalay method with CalcuSyn software (biosoft).

[3] = system: SW480 cancer cells; test: as above; format: cell-based, human; details: for Combination index (CI): SW480, 72 hr
Protocol: as §1, §2

[4] = system: Wi38 normal fibroblast cells; test: as above; format: cell-based, human; details: for Combination index (CI): Wi38, 72 hr
Protocol: as §1, §2

[5] = system: RXF393 cells; test: Flow cytometry sub-G1 DNA content; format: cell-based, human; details: 50 μM, 8 hours
Protocol: (§3) Cells were treated with NSC59984 or other drugs. Seventy-two hours after treatment, the cells were fixed with ethanol and stained with Propidium Iodide (PI). The samples were then subjected to analysis by an Epics Elite flow cytometer to measure the DNA content of the stained cells.

[6] = system: cancer cells; test: Flow cytometry sub-G1 DNA content; format: cell-based, human; details: 72 hr
Protocol: as §3

[7] = system: normal cells; test: Flow cytometry sub-G1 DNA content; format: cell-based, human; details: 25 μM, 72 hr
Protocol: as §3

[8] = system: MRC5 normal human fibroblast cells; test: Flow cytometry sub-G1 DNA content; format: cell-based; details: 50 μM, 72 hr
Protocol: as §3

[9] = system: Wi38 normal human fibroblast cells; test: Flow cytometry sub-G1 DNA content; format: cell-based; details: 50 μM, 72 hr
Protocol: as §3

[10] = system: DLD-1 cells; test: Flow cytometry sub-G1 DNA content; format: cell-based, human
Protocol: as §3
Cells were infected with retrovirus containing the pSIREN-REtrpcQ retroviral vector recombinant with TAp73 RNAi. Cells were cultured with blasticidin for several weeks, and blasticidin-resistant clones were selected. Knock-down of p73 was detected by measuring p73 protein levels by Western blot with anti-p73 antibody (Bethyl laboratories Inc. USA).

[11] = target: mutant p53 (Homo sapiens, UniProt P04637, P309S/R273H); test: Phosphorylation Western blot; format: cell-based; parameters: Phosphorylation of mutant p53 at Thr 55 and phosphorylation of MDM2 at Ser166 were found in SW480 cancer cells; endogenous in cells; host or cells: SW480; details: SW480 cells
Protocol: Proteins were extracted from cells and electrophoresed through 4-12% SDS-PAGE then transferred to PVDF membranes. The primary antibodies indicated in the figures were incubated with the transferred PVDF in blocking buffer at 4° C. overnight. Antibody binding was detected on PVDF with appropriate IRDye-secondary antibodies (LI-COR Biosciences, USA) by the ODYSSEY infrared imaging system.

[12] = CPT-11 15 mg/ml, NSC59984 12 mM
[13] = CPT-11 15 mg/ml, NSC59984 25 mM
[14] = CPT-11 30 mg/ml, NSC59984 12 mM
[15] = CPT-11 30 mg/ml, NSC59984 25 mM
[16] = CPT-11 60 mg/ml, NSC59984 12 mM
[17] = CPT-11 60 mg/ml, NSC59984 25 mM
[18] = CPT-11 120 mg/ml, NSC59984 6 mM
[19] = CPT-11 120 mg/ml, NSC59984 12 mM
[20] = CPT-11 120 mg/ml, NSC59984 25 mM
[21] = CPT-11 15 mg/ml, NSC59984 50 mM
[22] = CPT-11 30 mg/ml, NSC59984 50 mM
[23] = CPT-11 60 mg/ml, NSC59984 50 mM
[24] = CPT-11 120 mg/ml, NSC59984 50 mM

## CN1CCN(C(=O)/C=C/c2ccc([N+](=O)[O-])o2)CC1 [NSC59984, (E)-1-(4-methylpiperazin-1-yl)-3-(5-nitrofuran-2-yl)prop-2-en-1-one]
[1]; 25 μM in HCT116 and 12 μM in p53-null HCT116 cells
  Noxa mRNA: slightly increased
[1]; HCT116 and p53-null HCT116 cells
  Puma and p21 mRNA level: not up-regulated
[1]; SW480 and DLD-1 cells, 3 hours, dose-dependent
  mRNA levels of p21, Noxa and Puma: significantly increased
[2]; CPT-11 15 mg/ml, NSC59984 50 μM
  Combination index (CI): 0.00 ± 0.00
[2]; CPT-11 15 mg/ml, NSC59984 6 mM
  Combination index (CI): 1.06 ± 0.43
[2]; [12]
  Combination index (CI): 0.91 ± 0.21
[2]; [13]
  Combination index (CI): 0.54 ± 0.03
[2]; CPT-11 30 mg/ml, NSC59984 50 μM
  Combination index (CI): 0.00 ± 0.00
[2]; CPT-11 30 mg/ml, NSC59984 6 mM
  Combination index (CI): 0.75 ± 0.09
[2]; [14]
  Combination index (CI): 0.40 ± 0.07
[2]; [15]
  Combination index (CI): 0.12 ± 0.07
[2]; CPT-11 60 mg/ml, NSC59984 50 μM
  Combination index (CI): 0.00 ± 0.00
[2]; CPT-11 60 mg/ml, NSC59984 6 mM
  Combination index (CI): 0.49 ± 0.09
[2]; [16]
  Combination index (CI): 0.08 ± 0.04
[2]; [17]
  Combination index (CI): 0.00 ± 0.00
[2]; CPT-11 120 mg/ml, NSC59984 50 μM
  Combination index (CI): 0.02 ± 0.00
[2]; [18]
  Combination index (CI): 0.06 ± 0.02
[2]; [19]
  Combination index (CI): 0.00 ± 0.00
[2]; [20]
  Combination index (CI): 0.00 ± 0.00
[2]; normal fibroblast MRC5 cells
  combinational treatment with CPT11: synergic activity
[3]; CPT-11 15 mg/ml, NSC59984 6 mM
  Combination index (CI): 3.01 ± 0.20
[3]; [12]
  Combination index (CI): 2.02 ± 0.27
[3]; [13]
  Combination index (CI): 0.66 ± 0.04
[3]; [21]
  Combination index (CI): 1.00 ± 0.02
[3]; CPT-11 30 mg/ml, NSC59984 6 mM
  Combination index (CI): 1.80 ± 0.15
[3]; [14]
  Combination index (CI): 0.38 ± 0.04
[3]; [15]
  Combination index (CI): 0.65 ± 0.02
[3]; [22]
  Combination index (CI): 0.40 ± 0.04
[3]; CPT-11 60 mg/ml, NSC59984 6 mM
  Combination index (CI): 0.64 ± 0.17
[3]; [16]
  Combination index (CI): 0.22 ± 0.03
[3]; [17]
  Combination index (CI): 0.57 ± 0.00
[3]; [23]
  Combination index (CI): 0.41 ± 0.04
[3]; [18]
  Combination index (CI): 0.18 ± 0.01
[3]; [19]
  Combination index (CI): 0.36 ± 0.08
[3]; [20]
  Combination index (CI): 0.62 ± 0.05
[3]; [24]
  Combination index (CI): 0.23 ± 0.04
[3]; SW480 cancer cells as compared to MRC5 and Wi38 normal cells, 72 hr
  cell viability, combinational treatment with CPT11: significantly reduced
[3]; SW480 colon cancer cells
  combinational treatment with CPT11: synergic activity
[4]; CPT-11 15 mg/ml, NSC59984 6 mM
  Combination index (CI): 1.50 ± 0.18
[4]; [12]
  Combination index (CI): 1.45 ± 0.12
[4]; [13]
  Combination index (CI): 0.88 ± 0.11
[4]; [21]
  Combination index (CI): 0.03 ± 0.01
[4]; CPT-11 30 mg/ml, NSC59984 6 mM
  Combination index (CI): 1.10 ± 0.14
[4]; [14]
  Combination index (CI): 0.95 ± 0.05
[4]; [15]
  Combination index (CI): 0.20 ± 0.04
[4]; [22]
  Combination index (CI): 0.03 ± 0.00
[4]; CPT-11 60 mg/ml, NSC59984 6 mM
  Combination index (CI): 0.58 ± 0.10
[4]; [16]
  Combination index (CI): 0.44 ± 0.06
[4]; [17]
  Combination index (CI): 0.01 ± 0.00
[4]; [23]
  Combination index (CI): 0.05 ± 0.00
[4]; [18]
  Combination index (CI): 0.96 ± 0.22
[4]; [19]
  Combination index (CI): 0.29 ± 0.04
[4]; [20]
  Combination index (CI): 0.01 ± 0.00
[4]; [24]
  Combination index (CI): 0.11 ± 0.02
[4]; normal fibroblast Wi38 cells
  combinational treatment with CPT11: synergic activity
[5]
  Sub-G1 DNA content: 8.7%
[6]; 25 μM
  sub-G1 DNA content: 26-56%
[6]; 50 μM
  cells with sub-G1 content: 55-93%
[7]
  sub-G1 DNA content increase: not in normal cells
[8]
  DNA content in Sub-G1: 30%
[9]
  DNA content in Sub-G1: 12%
[10]; 50 μM, 8 hours, DLD-1
  Sub-G1 DNA content: 8.2%
[10]; DLD-1 cells, 72 hr
  percentage of cells with sub-G1 content: increased
[10]; p73 knock-down DLD-1 cells, 72 hr
  effect on percentage of cells with sub-G1 content: significantly reduced
[11]
  phosphorylation of mutant p53: phosphorylated at Thr55
